PMC2779455, “The E3 Ubiquitin-Ligase Bmi1/Ring1A Controls the Proteasomal Degradation of Top2α Cleavage Complex – A Potentially New Drug Target” (PLoS ONE, 2009)

Target: T1, Ring1A (Homo sapiens, UniProt Q06587)
T1 construct: gene RING1; recombinant GST fusion of Ring1A (N-terminal HA tag, C-terminal six-histidine tag) in complex with GST-Bmi1, from E. coli; with Bmi1
T1 sequence (Q06587 1-406): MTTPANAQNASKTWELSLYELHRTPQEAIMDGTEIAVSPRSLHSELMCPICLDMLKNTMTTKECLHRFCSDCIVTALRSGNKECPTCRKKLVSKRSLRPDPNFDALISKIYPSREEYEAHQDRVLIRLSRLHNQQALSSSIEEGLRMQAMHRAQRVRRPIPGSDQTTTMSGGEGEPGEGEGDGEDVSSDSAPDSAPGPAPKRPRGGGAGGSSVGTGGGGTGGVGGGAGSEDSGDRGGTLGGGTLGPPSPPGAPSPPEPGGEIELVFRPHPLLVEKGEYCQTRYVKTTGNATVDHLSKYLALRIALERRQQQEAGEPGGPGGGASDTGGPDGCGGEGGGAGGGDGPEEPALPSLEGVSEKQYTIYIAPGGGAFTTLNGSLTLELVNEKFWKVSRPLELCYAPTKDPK
T1 sequence (P35226 1-326 partner): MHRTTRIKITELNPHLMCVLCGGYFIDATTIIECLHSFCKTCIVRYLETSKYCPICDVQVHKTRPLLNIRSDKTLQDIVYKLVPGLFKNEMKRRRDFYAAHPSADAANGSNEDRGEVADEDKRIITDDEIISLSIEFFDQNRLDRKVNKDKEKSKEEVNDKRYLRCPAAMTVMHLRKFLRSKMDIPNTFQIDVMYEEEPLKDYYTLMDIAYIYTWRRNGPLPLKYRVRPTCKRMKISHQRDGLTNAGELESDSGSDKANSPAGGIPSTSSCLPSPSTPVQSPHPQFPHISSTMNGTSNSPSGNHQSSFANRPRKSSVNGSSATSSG
Assay: cell-free HTRF ubiquitination assay (E1, UbcH5a, Flag-ubiquitin), confirmed by gel-based Western blot
Type: biochemical

IC50: 3.9 µM
SMILES: O=C1C(=Cc2cccnc2)C(=O)c2ccccc21 [PRT4165]
